Measurements as given in patent publication US10966978B2, “Dose and regimen for HDM2-p53 interaction inhibitors” (Novartis AG, priority 2016, dated 2021).
Where two headings read alike, the source gives them in different places.

Test system: patients with advanced TP53 wild-type (WT) leukemias
Excerpt: Patients with Ph+ ALL who show early markers of relapse in MRD surveillance can be considered for inclusion as long as other therapies such as TKIs are exhausted or cannot be given. • Tumor of the patient is TP53 wt characterized by, at a minimum, no mutations in exons 5, 6, 7 and 8, and the p53 status was obtained from a bone-marrow sample, collected no longer than 3 months before signing the main ICF. Safety and Tolerability Profile of Regimen 1B in Hematological Tumors

COc1ncc(-c2nc3c(n2C(C)C)[C@H](c2ccc(Cl)cc2)N(c2cc(Cl)cn(C)c2=O)C3=O)c(OC)n1 [HDM201, (S)-5-(5-Chloro-1-methyl-2-oxo-1,2-dihydro-pyridin-3-yl)-6-(4-chloro-phenyl)-2-(2,4-dimethoxy-pyrimidin-5-yl)-1-isopropyl-5,6-dihydro-1H-pyrrolo[3,4-d]imidazol-4-one]
AE: Blood Creatinine Increased (Regimen 2A N = 7, All Grades): 1 (14.3) n (%) | AE: Blood Phosphorus Increased (Regimen 2A N = 7, All Grades): 0 n (%) | AE: Blood Uric Acid Increased (Regimen 2A N = 7, All Grades): 0 n (%) | AE: Bone Marrow Failure (Regimen 2A N = 7, All Grades): 1 (14.3) n (%) | AE: C-Reactive Protein Increased (Regimen 2A N = 7, All Grades): 1 (14.3) n (%) | AE: Cardiac Failure (Regimen 2A N = 7, All Grades): 0 n (%) | AE: Cellulitis (Regimen 2A N = 7, All Grades): 0 n (%) | AE: Chronic Graft Versus Host Disease (Regimen 2A N = 7, All Grades): 0 n (%) | AE: Conjunctival Haemorrhage (Regimen 2A N = 7, All Grades): 0 n (%) | AE: Cough (Regimen 2A N = 7, All Grades): 0 n (%) | AE: Cystitis Viral (Regimen 2A N = 7, All Grades): 0 n (%) | AE: Cytomegalovirus Infection (Regimen 2A N = 7, All Grades): 1 (14.3) n (%) | AE: Decreased Appetite (Regimen 2A N = 7, All Grades): 1 (14.3) n (%) | AE: Diarrhoea (Regimen 2A N = 7, All Grades): 0 n (%) | AE: Dyspepsia (Regimen 2A N = 7, All Grades): 1 (14.3) n (%) | AE: Dyspnoea (Regimen 2A N = 7, All Grades): 0 n (%) | AE: Epistaxis (Regimen 2A N = 7, All Grades): 0 n (%) | AE: Fatigue (Regimen 2A N = 7, All Grades): 0 n (%) | AE: Febrile Neutropenia (Regimen 2A N = 7, All Grades): 2 (28.6) n (%) | AE: Gamma-Glutamyltransferase Increased (Regimen 2A N = 7, All Grades): 0 n (%) | AE: General Physical Health Deterioration (Regimen 2A N = 7, All Grades): 0 n (%) | AE: Gingival Bleeding (Regimen 2A N = 7, All Grades): 0 n (%) | AE: Graft Versus Host Disease (Regimen 2A N = 7, All Grades): 0 n (%) | AE: Haemoglobin Decreased (Regimen 2A N = 7, All Grades): 0 n (%) | AE: Headache (Regimen 2A N = 7, All Grades): 0 n (%) | AE: Hyperbilirubinaemia (Regimen 2A N = 7, All Grades): 1 (14.3) n (%) | AE: Hyperglycaemia (Regimen 2A N = 7, All Grades): 0 n (%) | AE: Hyperkalaemia (Regimen 2A N = 7, All Grades): 0 n (%) | AE: Hyperphosphataemia (Regimen 2A N = 7, All Grades): 0 n (%) | AE: Hyperuricaemia (Regimen 2A N = 7, All Grades): 1 (14.3) n (%) | AE: Hypoalbuminaemia (Regimen 2A N = 7, All Grades): 0 n (%) | AE: Hypocalcaemia (Regimen 2A N = 7, All Grades): 0 n (%) | AE: Hypokalaemia (Regimen 2A N = 7, All Grades): 0 n (%) | AE: Hypomagnesaemia (Regimen 2A N = 7, All Grades): 0 n (%) | AE: Hyponatraemia (Regimen 2A N = 7, All Grades): 0 n (%) | AE: Hypophosphataemia (Regimen 2A N = 7, All Grades): 0 n (%) | AE: Hypotension (Regimen 2A N = 7, All Grades): 0 n (%) | AE: Infection (Regimen 2A N = 7, All Grades): 0 n (%) | AE: Infective Glossitis (Regimen 2A N = 7, All Grades): 0 n (%) | AE: Iron Overload (Regimen 2A N = 7, All Grades): 0 n (%) | AE: Leukopenia (Regimen 2A N = 7, All Grades): 0 n (%) | AE: Lip Oedema (Regimen 2A N = 7, All Grades): 0 n (%) | AE: Lipase Increased (Regimen 2A N = 7, All Grades): 0 n (%) | AE: Macular Oedema (Regimen 2A N = 7, All Grades): 0 n (%) | AE: Malaise (Regimen 2A N = 7, All Grades): 1 (14.3) n (%) | AE: Mouth Haemorrhage (Regimen 2A N = 7, All Grades): 0 n (%) | AE: Nausea (Regimen 2A N = 7, All Grades): 3 (42.9) n (%) | AE: Neutropenia/Neutrophil Count Decreased (Regimen 2A N = 7, All Grades): 1 (14.3) n (%) | AE: Oedema (Regimen 2A N = 7, All Grades): 0 n (%) | AE: Oedema Peripheral (Regimen 2A N = 7, All Grades): 0 n (%) | AE: Oral Disorder (Regimen 2A N = 7, All Grades): 0 n (%) | AE: Pain In Extremity (Regimen 2A N = 7, All Grades): 0 n (%) | AE: Pancytopenia (Regimen 2A N = 7, All Grades): 0 n (%) | AE: Pneumonia (Regimen 2A N = 7, All Grades): 0 n (%) | AE: Pollakiuria (Regimen 2A N = 7, All Grades): 0 n (%) | AE: Pyrexia (Regimen 2A N = 7, All Grades): 1 (14.3) n (%) | AE: Rash (Regimen 2A N = 7, All Grades): 0 n (%) | AE: Rash Erythematous (Regimen 2A N = 7, All Grades): 0 n (%) | AE: Rash Papular (Regimen 2A N = 7, All Grades): 0 n (%) | AE: Rectal Haemorrhage (Regimen 2A N = 7, All Grades): 0 n (%) | AE: Renal Failure (Regimen 2A N = 7, All Grades): 0 n (%) | AE: Skin Exfoliation (Regimen 2A N = 7, All Grades): 0 n (%) | AE: Stomatitis (Regimen 2A N = 7, All Grades): 0 n (%) | AE: Subarachnoid Haemorrhage (Regimen 2A N = 7, All Grades): 0 n (%) | AE: Thrombocytopenia/Platelet Count Decreased (Regimen 2A N = 7, All Grades): 2 (28.6) n (%) | AE: Total (Regimen 2A N = 7, All Grades): 5 (71.4) n (%) | AE: Tumour Lysis Syndrome (Regimen 2A N = 7, All Grades): 1 (14.3) n (%) | AE: Vomiting (Regimen 2A N = 7, All Grades): 1 (14.3) n (%) | AE: Weight Decreased (Regimen 2A N = 7, All Grades): 0 n (%) | AE: White Blood Cell Count Decreased (Regimen 2A N = 7, All Grades): 1 (14.3) n (%) | AE: Abdominal Discomfort (Regimen 2A N = 7, Grade 3/4): 0 n (%) | AE: Abdominal Pain (Regimen 2A N = 7, Grade 3/4): 0 n (%) | AE: Abdominal Pain Upper (Regimen 2A N = 7, Grade 3/4): 0 n (%) | AE: Acute Kidney Injury (Regimen 2A N = 7, Grade 3/4): 0 n (%) | AE: Amylase Increased (Regimen 2A N = 7, Grade 3/4): 0 n (%) | AE: Anaemia (Regimen 2A N = 7, Grade 3/4): 2 (28.6) n (%) | AE: Arthralgia (Regimen 2A N = 7, Grade 3/4): 0 n (%) | AE: Asthenia (Regimen 2A N = 7, Grade 3/4): 0 n (%) | AE: Atrial Fibrillation (Regimen 2A N = 7, Grade 3/4): 0 n (%) | AE: Atypical Pneumonia (Regimen 2A N = 7, Grade 3/4): 0 n (%) | AE: Balanitis Candida (Regimen 2A N = 7, Grade 3/4): 0 n (%) | AE: Blood Alkaline Phosphatase Increased (Regimen 2A N = 7, Grade 3/4): 0 n (%) | AE: Blood Bilirubin Increased (Regimen 2A N = 7, Grade 3/4): 0 n (%) | AE: Blood Creatinine Increased (Regimen 2A N = 7, Grade 3/4): 0 n (%) | AE: Blood Phosphorus Increased (Regimen 2A N = 7, Grade 3/4): 0 n (%) | AE: Blood Uric Acid Increased (Regimen 2A N = 7, Grade 3/4): 0 n (%) | AE: Bone Marrow Failure (Regimen 2A N = 7, Grade 3/4): 1 (14.3) n (%) | AE: C-Reactive Protein Increased (Regimen 2A N = 7, Grade 3/4): 1 (14.3) n (%) | AE: Cardiac Failure (Regimen 2A N = 7, Grade 3/4): 0 n (%) | AE: Cellulitis (Regimen 2A N = 7, Grade 3/4): 0 n (%) | AE: Chronic Graft Versus Host Disease (Regimen 2A N = 7, Grade 3/4): 0 n (%) | AE: Conjunctival Haemorrhage (Regimen 2A N = 7, Grade 3/4): 0 n (%) | AE: Cough (Regimen 2A N = 7, Grade 3/4): 0 n (%) | AE: Cystitis Viral (Regimen 2A N = 7, Grade 3/4): 0 n (%) | AE: Cytomegalovirus Infection (Regimen 2A N = 7, Grade 3/4): 0 n (%) | AE: Decreased Appetite (Regimen 2A N = 7, Grade 3/4): 0 n (%) | AE: Diarrhoea (Regimen 2A N = 7, Grade 3/4): 0 n (%) | AE: Dyspepsia (Regimen 2A N = 7, Grade 3/4): 0 n (%) | AE: Dyspnoea (Regimen 2A N = 7, Grade 3/4): 0 n (%) | AE: Epistaxis (Regimen 2A N = 7, Grade 3/4): 0 n (%) | AE: Fatigue (Regimen 2A N = 7, Grade 3/4): 0 n (%) | AE: Febrile Neutropenia (Regimen 2A N = 7, Grade 3/4): 2 (28.6) n (%) | AE: Gamma-Glutamyltransferase Increased (Regimen 2A N = 7, Grade 3/4): 0 n (%) | AE: General Physical Health Deterioration (Regimen 2A N = 7, Grade 3/4): 0 n (%) | AE: Gingival Bleeding (Regimen 2A N = 7, Grade 3/4): 0 n (%) | AE: Graft Versus Host Disease (Regimen 2A N = 7, Grade 3/4): 0 n (%)
